Test results published in PubChem BioAssay AID248 (DTP/NCI, 2004).
Where “and” joins values, the source holds several entries; their conditions need not be identical. Equal entries are not always repeated. Toxic doses and inconclusive results are not listed. Cut-off read from the data, not from the text of the source: active = T/C of 150% or more; inactive = T/C below 125%.

Tested on: L1210 leukemia ip in BDF1 mice, survival T/C
Assay: NCI In Vivo Anticancer Drug Screen. Data for tumor model L1210 Leukemia (intraperitoneal) in B6D2F1 (BDF1) mice
Settings: endpoint: mean survival time, higher = longer survival
In short: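 In this screen, tumor-bearing mice given compound are compared to those given vehicle, and their survival values are reported as a treated-to-control quotient.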

[1] = dose: 100.0 mg/kg/injection, schedule: Q01DX001 (ip), vehicle: carboxymethylcellulose (CMC)
[2] = dose: 100.0 mg/kg/injection, schedule: Q01DX009 (ip), vehicle: Klucel (hydroxypropylcellulose) (HPC)
[3] = dose: 200.0 mg/kg/injection, schedule: Q01DX001 (ip), vehicle: carboxymethylcellulose (CMC)
[4] = dose: 200.0 mg/kg/injection, schedule: Q01DX009 (ip), vehicle: Klucel (hydroxypropylcellulose) (HPC)
[5] = dose: 400.0 mg/kg/injection, schedule: Q01DX001 (ip), vehicle: carboxymethylcellulose (CMC)
[6] = dose: 400.0 mg/kg/injection, schedule: Q01DX009 (ip), vehicle: Klucel (hydroxypropylcellulose) (HPC)
[7] = dose: 100.0 mg/kg/injection, schedule: Q04DX003 (ip), vehicle: saline with Tween-80
[8] = dose: 200.0 mg/kg/injection, schedule: Q04DX003 (ip), vehicle: saline with Tween-80
[9] = dose: 400.0 mg/kg/injection, schedule: Q04DX003 (ip), vehicle: saline with Tween-80
[10] = dose: 50.0 mg/kg/injection, schedule: Q01DX009 (ip), vehicle: saline with Tween-80
[11] = dose: 100.0 mg/kg/injection, schedule: Q01DX009 (ip), vehicle: saline with Tween-80
[12] = dose: 200.0 mg/kg/injection, schedule: Q01DX009 (ip), vehicle: saline with Tween-80
[13] = dose: 25.0 mg/kg/injection, schedule: Q01DX009 (ip), vehicle: saline with Tween-80
[14] = dose: 100.0 mg/kg/injection, schedule: Q04DX002 (ip), vehicle: saline with Tween-80
[15] = dose: 200.0 mg/kg/injection, schedule: Q04DX002 (ip), vehicle: saline with Tween-80
[16] = dose: 400.0 mg/kg/injection, schedule: Q04DX002 (ip), vehicle: saline with Tween-80
[17] = dose: 100.0 mg/kg/injection, schedule: Q01DX001 (ip), vehicle: saline
[18] = dose: 200.0 mg/kg/injection, schedule: Q01DX001 (ip), vehicle: saline
[19] = dose: 400.0 mg/kg/injection, schedule: Q01DX001 (ip), vehicle: saline
[20] = dose: 100.0 mg/kg/injection, schedule: Q04DX002 (ip), vehicle: Klucel (hydroxypropylcellulose) (HPC)
[21] = dose: 200.0 mg/kg/injection, schedule: Q04DX002 (ip), vehicle: Klucel (hydroxypropylcellulose) (HPC)
[22] = dose: 100.0 mg/kg/injection, schedule: Q01DX001 (ip), vehicle: saline with Tween-80
[23] = dose: 200.0 mg/kg/injection, schedule: Q01DX001 (ip), vehicle: saline with Tween-80
[24] = dose: 400.0 mg/kg/injection, schedule: Q01DX009 (ip), vehicle: saline with Tween-80

Measured: T/C

O=C(OC1CC2CC1C1CCCC21)c1ccc([N+](=O)[O-])cc1 (centres undefined)
inactive: dose: 50.0 mg/kg/injection, schedule: Q01DX001 (ip), vehicle: carboxymethylcellulose (CMC) 90 % of control | [1] 87 % of control | [2] 104 % of control | [3] 92 % of control | [4] 100 % of control | [5] 95 % of control | [6] 97 % of control

C[N+](C)(C)/N=C/c1ccc(Cl)cc1
inactive: dose: 5.0 mg/kg/injection, schedule: Q01DX001 (ip), vehicle: carboxymethylcellulose (CMC) 98 % of control | dose: 10.0 mg/kg/injection, schedule: Q01DX001 (ip), vehicle: carboxymethylcellulose (CMC) 104 % of control | dose: 20.0 mg/kg/injection, schedule: Q01DX001 (ip), vehicle: carboxymethylcellulose (CMC) 95 % of control | dose: 40.0 mg/kg/injection, schedule: Q01DX001 (ip), vehicle: carboxymethylcellulose (CMC) 104 % of control

CC12CCC(=O)C=C1CCC1C2C(O)CC2(C)C1CCC2(O)C(=O)CSc1ncnc2nc[nH]c12 (centres undefined)
inactive: dose: 50.0 mg/kg/injection, schedule: Q01DX001 (sc), vehicle: steriod suspending solution 96 % of control | dose: 100.0 mg/kg/injection, schedule: Q01DX001 (sc), vehicle: steriod suspending solution 94 % of control and 108 % of control | dose: 200.0 mg/kg/injection, schedule: Q01DX001 (sc), vehicle: steriod suspending solution 105 % of control and 108 % of control | dose: 400.0 mg/kg/injection, schedule: Q01DX001 (sc), vehicle: steriod suspending solution 97 % of control and 102 % of control

C(=N\n1cnnc1)/c1ccc2c(c1)CCC2
inactive: [7] 94 % of control | [8] 112 % of control | [9] 98 % of control

CCCCCCCCCCOS(C)=O (centres undefined)
inactive: [10] 100 % of control | [11] 92 % of control | [12] 88 % of control

O=S(=O)(CS(=O)(=O)c1ccccc1)c1ccccc1
inactive: dose: 75.0 mg/kg/injection, schedule: Q01DX009 (ip), vehicle: Klucel (hydroxypropylcellulose) (HPC) 102 % of control | dose: 150.0 mg/kg/injection, schedule: Q01DX009 (ip), vehicle: Klucel (hydroxypropylcellulose) (HPC) 98 % of control | dose: 300.0 mg/kg/injection, schedule: Q01DX009 (ip), vehicle: Klucel (hydroxypropylcellulose) (HPC) 95 % of control

CC(=O)NCc1ccc([N+](=O)[O-])cc1
inactive: [13] 100 % of control | [10] 107 % of control | [11] 104 % of control | [12] 111 % of control

C=CCC(=O)O
inactive: dose: 83.0 mg/kg/injection, schedule: Q01DX Z (ip), vehicle: saline 96 % of control | dose: 125.0 mg/kg/injection, schedule: Q01DX Z (ip), vehicle: saline 90 % of control

CCCCOP(=O)(Nc1ccc(Cl)cc1)OCCCC
inactive: [14] 101 % of control | [15] 94 % of control | [16] 105 % of control

[O]=[Sn]([OH])[c]1ccccc1
inactive: [14] 102 % of control | [15] 105 % of control | [16] 94 % of control

CCC(CC)(COC(C)=O)C[N+](C)(C)C
inactive: [17] 103 % of control | dose: 100.0 mg/kg/injection, schedule: Q04DX003 (ip), vehicle: saline 94 % of control | [18] 95 % of control | dose: 200.0 mg/kg/injection, schedule: Q04DX003 (ip), vehicle: saline 102 % of control

CCCCOC(=O)CC(C(=O)OCCCC)S(=O)(=O)O (centres undefined)
inactive: [17] 96 % of control | [18] 104 % of control | [19] 101 % of control

COC(=O)c1cc([N+](=O)[O-])ccc1Br
inactive: [7] 101 % of control | [8] 93 % of control | [9] 104 % of control

CCN(CCOC(=O)Nc1cccc(C(C)=O)c1)c1ccccc1
inactive: [2] 108 % of control | [4] 104 % of control | [6] 106 % of control

O=c1[nH]cnc2nc(Br)[nH]c12
inactive: [17] 104 % of control | [18] 95 % of control | [19] 98 % of control

CCOC(=O)C/C(C)=N\NC(N)=O
inactive: [20] 104 % of control | [21] 101 % of control | dose: 400.0 mg/kg/injection, schedule: Q04DX002 (ip), vehicle: Klucel (hydroxypropylcellulose) (HPC) 97 % of control

C/C(=C\Cl)COC(C)(C)C
inactive: [22] 94 % of control | [23] 94 % of control

CCOC(=O)c1ccc(N=Nc2ccc([N+](=O)[O-])cc2)cc1
inactive: [14] 105 % of control | [15] 105 % of control | [16] 112 % of control

CSc1nc(N)c(C#N)cc1C#N
inactive: [11] 88 % of control | [12] 88 % of control | [24] 88 % of control

CN1C2CCCC1CC(=O)NC2 (centres undefined)
inactive: dose: 15.0 mg/kg/injection, schedule: Q01DX001 (ip), vehicle: saline 107 % of control | dose: 15.0 mg/kg/injection, schedule: Q04DX002 (ip), vehicle: saline 101 % of control | dose: 30.0 mg/kg/injection, schedule: Q01DX001 (ip), vehicle: saline 106 % of control | dose: 30.0 mg/kg/injection, schedule: Q04DX002 (ip), vehicle: saline 101 % of control | dose: 60.0 mg/kg/injection, schedule: Q04DX002 (ip), vehicle: saline 108 % of control

CSc1ncnc2c1ncn2C1OC(COC(N)=O)C(O)C1O (centres undefined)
inactive: dose: 100.0 mg/kg/injection, schedule: Q01DX005 (ip), vehicle: saline 107 % of control | dose: 200.0 mg/kg/injection, schedule: Q01DX005 (ip), vehicle: saline 114 % of control

CCCCCCCCCCCCCCCCSCCOC(=O)C1C2CCC(O2)C1C(=O)O (centres undefined)
inactive: dose: 12.5 mg/kg/injection, schedule: Q01DX001 (ip), vehicle: Klucel (hydroxypropylcellulose) (HPC) 107 % of control | dose: 25.0 mg/kg/injection, schedule: Q01DX001 (ip), vehicle: Klucel (hydroxypropylcellulose) (HPC) 101 % of control | dose: 50.0 mg/kg/injection, schedule: Q01DX001 (ip), vehicle: Klucel (hydroxypropylcellulose) (HPC) 98 % of control

CNC(=O)Oc1cccc(C(F)(F)F)c1
inactive: [1] 90 % of control | [3] 98 % of control | [5] 92 % of control

CC(C)c1nc(C=O)c(C=O)n1Cc1ccccc1
inactive: [13] 100 % of control and 90 % of control | dose: 25.0 mg/kg/injection, schedule: Q04DX002 (ip), vehicle: saline with Tween-80 101 % of control and 103 % of control | dose: 25.0 mg/kg/injection, schedule: Q04DX003 (ip), vehicle: carboxymethylcellulose (CMC) 92 % of control | dose: 50.0 mg/kg/injection, schedule: Q01DX001 (ip), vehicle: saline with Tween-80 89 % of control | [10] 102 % of control and 103 % of control | dose: 50.0 mg/kg/injection, schedule: Q04DX002 (ip), vehicle: saline with Tween-80 95 % of control and 101 % of control | dose: 50.0 mg/kg/injection, schedule: Q04DX003 (ip), vehicle: carboxymethylcellulose (CMC) 95 % of control | [22] 96 % of control | [11] 94 % of control and 105 % of control | [20] 105 % of control | dose: 100.0 mg/kg/injection, schedule: Q04DX002 (ip), vehicle: other 98 % of control and 89 % of control | [14] 95 % of control and 86 % of control | dose: 100.0 mg/kg/injection, schedule: Q04DX003 (ip), vehicle: carboxymethylcellulose (CMC) 100 % of control | [23] 94 % of control | [21] 107 % of control | dose: 200.0 mg/kg/injection, schedule: Q04DX002 (ip), vehicle: other 98 % of control

OC1C2CC3C1C3C2O (centres undefined)
inactive: [11] 94 % of control | [12] 94 % of control | [24] 97 % of control

C[n+]1ccc(/C=C/c2ccc(Cl)c(Cl)c2)cc1
inactive: dose: 3.0 mg/kg/injection, schedule: Q01DX009 (ip), vehicle: Klucel (hydroxypropylcellulose) (HPC) 105 % of control | dose: 6.0 mg/kg/injection, schedule: Q01DX009 (ip), vehicle: Klucel (hydroxypropylcellulose) (HPC) 93 % of control | dose: 12.0 mg/kg/injection, schedule: Q01DX009 (ip), vehicle: Klucel (hydroxypropylcellulose) (HPC) 93 % of control | dose: 12.5 mg/kg/injection, schedule: Q04DX003 (ip), vehicle: Klucel (hydroxypropylcellulose) (HPC) 104 % of control
